In brackets after ≈: the same amount, converted by molar mass.
Tests used:
Type in all cases: functional
Conditions in all cases: Chlorocebus sabaeus, read-out: ID50 (the source's name)
Vero [1] = assay: Tested for the concentration required to inhibit HSV-1 strain KOS cytopathic effect by 50% in vero cells
Vero [2] = assay: Tested for the concentration required to inhibit HSV-2 strain 186 cytopathic effect by 50% in vero cells
Vero [3] = assay: Tested for the cytotoxic effect in vero cell monolayers after incubation for 48 hr at 37 degree Centigrade

Structure (SMILES) | IC50 (Vero [1]) [µg/mL] | IC50 (Vero [2]) [µg/mL] | IC50 (Vero [3]) [µg/mL]
Nc1nc(O)c2ncn([C@H]3C[C@H](O)[C@](O)(CO)C3)c2n1 | 70 (≈ 249 µM) | 65 (≈ 231 µM) | > 300
Nc1nc(O)c2ncn([C@H]3C[C@H](O)[C@@](O)(CO)C3)c2n1 | 0.15 (≈ 0.533 µM) | 0.26 (≈ 0.924 µM) | > 900
Nc1nc(O)c2ncn([C@@H]3C[C@H](CO)[C@@H](O)C3)c2n1 | 0.06 (≈ 0.226 µM) | 0.44 (≈ 1.66 µM) | 300 (≈ 1130 µM)
Nc1nc(O)c2ncn(C3CC(O)C(F)(CO)C3)c2n1 (stereo not given) | 0.15 (≈ 0.53 µM) | 0.36 (≈ 1.27 µM) | 100 (≈ 353 µM)
Nc1nc2c(ncn2COCCO)c(=O)[nH]1 [ACYCLOVIR] | 0.2 (≈ 0.888 µM) | 0.6 (≈ 2.66 µM) | > 300

— ChEMBL document CHEMBL1150003, “Chiral carbocylic nucleosides: The synthesis and antiviral activity of 4-hydroxy and 4-fluorocarbocyclic - 2- deoxyguanosines” (1993)
